From patent EP0687258B1, “SUBSTITUTED IMINOACETONITRILES WITH MYOCARDIAL PROTECTIVE EFFECT” (HOECHST AKTIENGESELLSCHAFT, priority 1993, dated 1994)

Test system: isoliert perfundierten Rattenherzens
Assay: Isolated perfused rat heart (Langendorff), anoxia/reoxygenation, release of lactate dehydrogenase into the perfusate
Design: species or system Wistarratten
Conditions: for Freisetzung von Laktatdehydrogenase (großer initialer Enzymverlust) während der Reoxygenationsphase: closed circles, n = 4 hearts; for Enzymverlust nach anschließendem Auswaschen der Substanz: open circles
Protocol: Die pharmakologische Wirkung der erfindungsgemäßen Verbindungen der allgemeinen Formel I sowie des N-Morpholino-iminoacetonitrils wurden am Modell des isoliert perfundierten Rattenherzens untersucht.
Dazu wurden Herzen von 200 - 250 g schweren Wistarratten in einer temperaturkontrollierten Kammer (37°C) an ein Langendorff-Perfusionssystem gehängt. Die Kammer war während normoxischer Perfusionen mit Luft, während anoxischer mit 95 % N2 plus 5 % CO2 gefüllt. […] Für eine initiale Stabilisierungsperiode von 30 min wurden die Herzen mit einem oxygenierten salinen Medium perfundiert (Zusammensetzung in mM: 140.0 NaCl, 24.0 NaHCO3, 2.7 KCl, 0.4 NaH2PO4, 1.0 MgCl2, 1.8 CaCl2, 5.0 Glucose, äquilibriert mit 95 % O2 und 5 % CO2, pH 7.4). Für anoxische Perfusionen wurde diese initiale normoxische Stabilisierungsperiode gefolgt von 60 min Perfusion, mit einem Fluß von 5 ml/min von anoxoischem Medium (Zusammensetzung wie zuvor, aber ohne Glucose und äquilibriert mit 95 % N2 und 5 % CO2, pH 7.4). Die anoxisch perfundierten Herzen wurden nachfolgend durch Zurückschalten auf die initialen normoxischen Perfusionsbedingungen reoxygeniert.
In Versuchen mit den Testsubstanzen wurden diese dem anoxischen Perfusat während der letzten 15 min zugefügt. Die ersten 60 min der Reoxygenationsphase wurden ebenfalls in Gegenwart der Testsubstanzen durchgeführt. Danach wurde ohne diese Substanzen die normoxische Perfusion für weitere 45 min fortgesetzt.
Die Herzschädigung wurde charakterisiert durch die Freisetzung des zytosolischen Enzyms Laktatdehydrogenase (LDH) in das Perfusat. Während der Herzperfusion wurden 1-minütige Sammelproben des Effluats gesammelt. Die Aktivität von LDH wurde auch in Homogenaten ganzer Rattenherzen gemessen (präpariert in 100 mM Phosphatpuffer, pH 7.4, mit 1 % Triton X-100). […] Der Enzymverlust wurde in Prozenten der initialen Gesamtgewebsaktivitäten angegeben.

| Wirksamkeit im Vergleich zu BDM (relative to BDM (10 mM vs 20 mM)) | Freisetzung von Laktatdehydrogenase (großer initialer Enzymverlust) während der Reoxygenationsphase (reoxygenation after 60 min anoxia in presence of 10 mM test substance, Abbildung 1 B) | reoxygenationsbedingte Myokardschädigung (summary of the results shown) | SMILES | Enzymverlust nach anschließendem Auswaschen der Substanz (washout after reoxygenation in presence of 10 mM test substance, Abbildung 1 B) | Freisetzung von Laktatdehydrogenase (großer initialer Enzymverlust) während der Reoxygenationsphase (reoxygenation after 60 min anoxia in presence of 20 mM test substance, Abbildung 1 C) | Enzymverlust nach anschließendem Auswaschen der Substanz (washout after reoxygenation in presence of 20 mM test substance, Abbildung 1 C) |
| --- | --- | --- | --- | --- | --- | --- |
| etwa doppelt so hoch wie die von BDM | weitgehend unterdrückt | deutlich reduziert | N#CC=NN1CCOCC1 [N-Morpholino-iminoacetonitril] | keiner weiteren Steigerung des Enzymverlusts |  |  |
|  |  |  | CC(=O)C(C)=NO [Butandionmonoxim, reference compound] |  | weitgehend unterdrückt | geringen initialen Steigerung des Enzymverlustes |
